The values that follow come from patent publication US4089974A, “5-Carboxy-phenylenebis(carbonylimino)benzene carboxylic and dicarboxylic acids and salts” (American Cyanamid Company, priority 1977, dated 1978).

Where a name gives a salt, the structure may show the parent alone. A value given as a limit tells only on which side of the number the result lay.

For experiment [1], the system named is Citrated sheep plasma (CSP). The experiment can be described thus: in vitro anti-coagulant activity (AC), citrated sheep plasma clotting. It is filed as biochemical. Here is the method:
The sheep RBC's, kept in suspension throughout the clotting incubation time, become enmeshed in the fibrin matrix if a clots forms. Upon centrifugation of the plate, untrapped RBC's form buttons, the sizes of which correspond to the degree of clot inhibition; this providing a measure of anti-coagulant activity (AC). Sodium heparin is used as a positive control and activity is reported in wells appearing in Table I.

Experiment [2] in a line: Intrinsic Therapeutic Index (Code 026 versus AC). The conditions noted are these: Table II. The text has this:
The computation of an Intrinsic Therapeutic Index (ITI) was devised to correlate the results, expressed in wells, obtained in the in vitro Code 026 (C1 inhibitor) test and the in vitro anti-coagulant (AC) test into a meaningful value which would aid in the net evaluation of the activity of the compounds of this invention.
The ITI of a given compound may be defined as the antilogarithm of the logarithmic (base 2) difference between the highest serial dilution in wells which is active in the Code 026 test and the highest serial dilution in wells providing activity in the anti-coagulant test. The ITI is thus a measure of the separation of anti-complement and anti-coagulant activities; the higher the numerical value the more therapeutically useful the separation of activities.

The next experiment has as its system human C1. The experiment can be described thus: Test, Code 026 (C1 inhibitor). In kind it is biochemical. The text has this:
An active inhibitor protects C2 from C1 and C4; (ii) Test, Code 035 (C3-C9 inhibitor) -- This test determines the ability of the late components of human complement (C3-C9) to lyse EAC 142 in the presence of appropriate dilutions of the test compound. An active inhibitor protects EAC 142 from lysis by human C3-C9; (iii) Test, Code 036 (C-Shunt inhibitor) -- In this test human erythrocytes rendered fragile are lysed in autologous serum via the shunt pathway activated by cobra venom factor in the presence of appropriate dilutions of the test compound. Inhibition of the shunt pathway results in failure of lysis; (iv) Forssman Vasculitis Test -- Here, the well known complement dependent lesion, Forssman vasculitis, is produced in guinea pigs by intradermal injection of rabbit anti-Forssman antiserum. […]

For experiment [3], the system named is hereditary angioneurotic edema. The settings on record: The New England Journal of Medicine, 286, 808-812 (1972); cited from earlier work.
The next experiment relates to complement system. The settings on record: cited from earlier work; for anticomplementary effect: British Journal of Experimental Pathology, 33, 327-339 (1952).

Regarding `O=C([O-])c1cc(C(=O)Nc2ccc(C(=O)[O-])c(C(=O)[O-])c2)cc(C(=O)Nc2ccc(C(=O)[O-])c(C(=O)[O-])c2)c1.[Na+].[Na+].[Na+].[Na+].[Na+]` [4,4'-[5-Carboxy-1,3-phenylenebis(carbonylimino)]-diphthalic acid pentasodium salt], the “AC Wells” value in experiment [1] (Table I, two-fold serial dilution assay, sodium heparin positive control) is on record as no more than -2 Wells. The “Anti-Coagulant Activity (Wells) AC” value in experiment [1] (Table II, in vitro) is on record as -2 Wells. Further, in experiment [2] (antilogarithm of the logarithmic (base 2) difference), the “Intrinsic Therapeutic Index” value came to 16. Also, the “Logarithmic Difference Expressed as Wells” value in experiment [2] (log base 2 difference, Code 026 minus AC) is recorded as “+4 Wells”. In the experiment on human C1 (Table I, two-fold serial dilution assay, higher well number indicates higher activity), the “C1 026 Wells” value is reported as “+2 Wells”. Further, the “Complement Inhibiting Activity (Wells) Code 026” value in the experiment with human C1 (Table II, in vitro) was “+2 Wells”.
For the compound `Cc1ccc(C(=O)Nc2ccc(S(=O)(=O)O)c3cc(S(=O)(=O)O)cc(S(=O)(=O)O)c23)cc1NC(=O)c1cccc(NC(=O)Nc2cccc(C(=O)Nc3cc(C(=O)Nc4ccc(S(=O)(=O)O)c5cc(S(=O)(=O)O)cc(S(=O)(=O)O)c45)ccc3C)c2)c1` [Suramin, 8-(3-benzamido-4-methylbenzamido)naphthalene-1, -3,5-trisulfonic acid], the “treatment of hereditary angioneurotic edema” value (“treatment” for short) in experiment [3] is given as “used with success”. For the same compound, the “inhibition of the complement system” value in the experiment with complement system (Clin. Exp. Immunol., 10, 127-138 (1972)) is listed as “competitive inhibitor of the complement system”.
Turning to `Nc1ccc2cc(S(=O)(=O)O)cc(O)c2c1N=Nc1ccc(NC(=O)Nc2ccc(N=Nc3c(N)ccc4cc(S(=O)(=O)O)cc(O)c34)c(S(=O)(=O)O)c2)cc1S(=O)(=O)O` [chlorazol fast pink, 3,3'-ureylenebis-[6-(2-amino-8-hydroxy-6-sulfo-1-naphthylazo)]benzenesulfonic acid, tetrasodium salt], the anticomplementary effect result in the experiment on complement system is recorded as “reported to have an anticomplementary effect”.
With `NCCCCCC(=O)O` [epsilon-aminocaproic acid], the “treatment” value in experiment [3] is “used with success”.
Turning to `NC[C@H]1CC[C@H](C(=O)O)CC1` [tranexamic acid], in experiment [3], the “treatment” value is given as “used with success”.
Take heparin: the anticomplementary effect entry in the experiment with complement system was “reported to have an anticomplementary effect”.
